We go through nine cell lines from the supplement of paper PMC10307832.

Test in all cases: relative viability (nuclei count vs DMSO), 5 days (fraction); higher = more cells survive
Compound in the assay “NVP-TAE684 + Foretinib”: COc1cc(N2CCC(N3CCN(C)CC3)CC2)ccc1Nc1ncc(Cl)c(Nc2ccccc2S(=O)(=O)C(C)C)n1 [NVP-TAE684] + COc1cc2c(Oc3ccc(NC(=O)C4(C(=O)Nc5ccc(F)cc5)CC4)cc3F)ccnc2cc1OCCCN1CCOCC1 [Foretinib] (partner 0.25 µM)
The gist of the method:
(§1)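 The day after seeding in 1536-well plates, lung cancer cell lines were treated by pin tool with a single drug, or with a fixed anchor-drug dose together with five library-drug doses (not always all listed) in √10 steps. After 5 days, a combined fix-and-stain solution (final 0.05% Triton X-100, 1% formaldehyde, 1 ug/ml Hoechst) was added. Nuclei counted on 4× images gave relative viability as treated counts over vehicle counts, reported as the median of duplicate plates.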

Compound in the assay “NVP-TAE684 + Luminespib”: COc1cc(N2CCC(N3CCN(C)CC3)CC2)ccc1Nc1ncc(Cl)c(Nc2ccccc2S(=O)(=O)C(C)C)n1 [NVP-TAE684] + CCNC(=O)c1noc(-c2cc(C(C)C)c(O)cc2O)c1-c1ccc(CN2CCOCC2)cc1 [Luminespib] (partner 0.01 µM)
The gist of the method:
as §1

Compound in the assay “CUDC-101 + AZD7762”: C#Cc1cccc(Nc2ncnc3cc(OC)c(OCCCCCCC(=O)NO)cc23)c1 [CUDC-101] + NC(=O)Nc1cc(-c2cccc(F)c2)sc1C(=O)N[C@H]1CCCNC1 [AZD7762] (partner 0.2 µM)
The gist of the method: as §1

Compound in assay [1]: C1=CC=C2C(=C1)N=C(S2)C(C#N)C3=NC(=NC=C3)NCCC4=CN=CC=C4 + CC1(C)CCC(c2ccc(Cl)cc2)=C(CN2CCN(c3ccc(C(=O)NS(=O)(=O)c4ccc(N[C@H](CCN5CCOCC5)CSc5ccccc5)c(S(=O)(=O)C(F)(F)F)c4)cc3)CC2)C1 [Navitoclax] (partner 0.5 µM)
Put shortly:
as §1

Compound in the assay “NVP-TAE684 + Phenformin”: COc1cc(N2CCC(N3CCN(C)CC3)CC2)ccc1Nc1ncc(Cl)c(Nc2ccccc2S(=O)(=O)C(C)C)n1 [NVP-TAE684] + N=C(N)NC(=N)NCCc1ccccc1 [Phenformin] (partner 250 µM)
The gist of the method: as §1

201T: the relative viability is 1.12 with NVP-TAE684 + Foretinib (first compound 0.2 µM); 0.96 with NVP-TAE684 + Foretinib (first compound 0.6325 µM); 0.403 with NVP-TAE684 + Foretinib (first compound 2 µM); 0.964 with NVP-TAE684 + Luminespib (first compound 0.2 µM); 0.992 in the assay with NVP-TAE684 + Luminespib (first compound 0.6325 µM); 0.69 with NVP-TAE684 + Luminespib (first compound 2 µM). Also, the relative viability with CUDC-101 + AZD7762 (first compound 0.01 µM) was 0.617; with CUDC-101 + AZD7762 (first compound 0.03162 µM), 0.646; in the assay with CUDC-101 + AZD7762 (first compound 0.1 µM), 0.613; with CUDC-101 + AZD7762 (first compound 0.3162 µM), 0.614; with CUDC-101 + AZD7762 (first compound 1 µM), 0.39; in assay [1] (first compound 0.005 µM) it was 1.14. The relative viability in assay [1] (first compound 0.01581 µM) turned out to be 1.22; in assay [1] (first compound 0.05 µM), 1.14; in assay [1] (first compound 0.1581 µM), 1.24; in assay [1] (first compound 0.5 µM), 1.2; with NVP-TAE684 + Phenformin (first compound 0.2 µM), 0.421; in the assay with NVP-TAE684 + Phenformin (first compound 0.6325 µM), 0.437. Moreover, the relative viability in the assay with NVP-TAE684 + Phenformin (first compound 2 µM) turned out to be 0.38.
Turning to A549, the relative viability with NVP-TAE684 + Foretinib (first compound 0.2 µM) was 1.01; with NVP-TAE684 + Foretinib (first compound 2 µM), 0.659; in assay [1] (first compound 0.005 µM) it was 1.26; in assay [1] (first compound 0.01581 µM), 1.19; in assay [1] (first compound 0.05 µM), 1.11; in assay [1] (first compound 0.1581 µM) it was 1.31. Further, the relative viability in assay [1] (first compound 0.5 µM) came to 1.29; with NVP-TAE684 + Phenformin (first compound 0.2 µM), 0.153; with NVP-TAE684 + Phenformin (first compound 0.6325 µM) it was 0.171; in the assay with NVP-TAE684 + Phenformin (first compound 2 µM), 0.122.
For the cell line A-427, the relative viability came to 0.952 with NVP-TAE684 + Foretinib (first compound 0.2 µM); 1.1 with NVP-TAE684 + Foretinib (first compound 0.6325 µM); 0.498 with NVP-TAE684 + Foretinib (first compound 2 µM); 0.978 in the assay with NVP-TAE684 + Luminespib (first compound 0.2 µM); 0.79 in the assay with NVP-TAE684 + Luminespib (first compound 0.6325 µM); 0.516 in the assay with NVP-TAE684 + Luminespib (first compound 2 µM). For the same cell line, the relative viability with CUDC-101 + AZD7762 (first compound 0.01 µM) turned out to be 0.675; with CUDC-101 + AZD7762 (first compound 0.03162 µM), 0.701; in the assay with CUDC-101 + AZD7762 (first compound 0.1 µM), 0.625; with CUDC-101 + AZD7762 (first compound 0.3162 µM), 0.483; with CUDC-101 + AZD7762 (first compound 1 µM), 0.258; in assay [1] (first compound 0.005 µM), 0.964. In addition, the relative viability came out at 0.95 in assay [1] (first compound 0.01581 µM); 0.956 in assay [1] (first compound 0.05 µM); 0.896 in assay [1] (first compound 0.1581 µM); 1.05 in assay [1] (first compound 0.5 µM); 0.285 with NVP-TAE684 + Phenformin (first compound 0.2 µM); 0.257 with NVP-TAE684 + Phenformin (first compound 0.6325 µM). Besides, the relative viability in the assay with NVP-TAE684 + Phenformin (first compound 2 µM) is 0.221.
In the case of ABC-1, the relative viability with NVP-TAE684 + Foretinib (first compound 0.2 µM) came to 1.07; in the assay with NVP-TAE684 + Foretinib (first compound 0.6325 µM), 0.742; with NVP-TAE684 + Foretinib (first compound 2 µM), 0.349; with NVP-TAE684 + Luminespib (first compound 0.2 µM) it was 0.405; with NVP-TAE684 + Luminespib (first compound 0.6325 µM), 0.264; with NVP-TAE684 + Luminespib (first compound 2 µM), 0.381. Besides, the relative viability with CUDC-101 + AZD7762 (first compound 0.01 µM) amounted to 0.889; in the assay with CUDC-101 + AZD7762 (first compound 0.03162 µM), 0.807; with CUDC-101 + AZD7762 (first compound 0.1 µM), 0.763; in the assay with CUDC-101 + AZD7762 (first compound 0.3162 µM), 0.852; in the assay with CUDC-101 + AZD7762 (first compound 1 µM), 0.334; in the assay with NVP-TAE684 + Phenformin (first compound 0.2 µM) it was 0.218. Besides, the relative viability with NVP-TAE684 + Phenformin (first compound 0.6325 µM) amounted to 0.226; with NVP-TAE684 + Phenformin (first compound 2 µM), 0.122.
Regarding BEN, the relative viability came to 0.736 with NVP-TAE684 + Foretinib (first compound 0.2 µM); 0.509 in the assay with NVP-TAE684 + Foretinib (first compound 0.6325 µM); 0.555 in the assay with NVP-TAE684 + Foretinib (first compound 2 µM); 0.444 in the assay with NVP-TAE684 + Luminespib (first compound 0.2 µM); 0.172 in the assay with NVP-TAE684 + Luminespib (first compound 0.6325 µM); 0.34 with NVP-TAE684 + Luminespib (first compound 2 µM). The relative viability with CUDC-101 + AZD7762 (first compound 0.01 µM) came out at 0.68; with CUDC-101 + AZD7762 (first compound 0.03162 µM), 0.735; with CUDC-101 + AZD7762 (first compound 0.1 µM), 0.703; with CUDC-101 + AZD7762 (first compound 0.3162 µM), 0.684; with CUDC-101 + AZD7762 (first compound 1 µM) it was 0.645; in assay [1] (first compound 0.005 µM), 0.0669. The relative viability came out at 0.0686 in assay [1] (first compound 0.01581 µM); 0.0618 in assay [1] (first compound 0.05 µM); 0.134 in assay [1] (first compound 0.1581 µM); 0.0603 in assay [1] (first compound 0.5 µM); 0.257 with NVP-TAE684 + Phenformin (first compound 0.2 µM); 0.285 with NVP-TAE684 + Phenformin (first compound 0.6325 µM). Besides, the relative viability with NVP-TAE684 + Phenformin (first compound 2 µM) was found to be 0.231.
With CAL-12T, the relative viability came to 1.05 with NVP-TAE684 + Foretinib (first compound 0.2 µM); 1.11 with NVP-TAE684 + Foretinib (first compound 0.6325 µM); 0.233 with NVP-TAE684 + Foretinib (first compound 2 µM); 0.185 with NVP-TAE684 + Luminespib (first compound 0.2 µM); 0.655 with NVP-TAE684 + Luminespib (first compound 0.6325 µM); 0.0938 with NVP-TAE684 + Luminespib (first compound 2 µM). In addition, the relative viability came to 0.668 with CUDC-101 + AZD7762 (first compound 0.01 µM); 0.567 with CUDC-101 + AZD7762 (first compound 0.03162 µM); 0.617 with CUDC-101 + AZD7762 (first compound 0.1 µM); 0.536 with CUDC-101 + AZD7762 (first compound 0.3162 µM); 0.601 with CUDC-101 + AZD7762 (first compound 1 µM); 0.993 in assay [1] (first compound 0.005 µM). In addition, the relative viability was 1.38 in assay [1] (first compound 0.01581 µM); 1.11 in assay [1] (first compound 0.05 µM); 1.35 in assay [1] (first compound 0.1581 µM); 0.993 in assay [1] (first compound 0.5 µM); 0.365 with NVP-TAE684 + Phenformin (first compound 0.2 µM); 0.472 with NVP-TAE684 + Phenformin (first compound 0.6325 µM). Moreover, the relative viability with NVP-TAE684 + Phenformin (first compound 2 µM) was 0.117.
As for COR-L23, the relative viability in the assay with NVP-TAE684 + Foretinib (first compound 0.2 µM) was 0.967; in the assay with NVP-TAE684 + Foretinib (first compound 0.6325 µM), 0.996; with NVP-TAE684 + Foretinib (first compound 2 µM) it was 0.332; in the assay with NVP-TAE684 + Luminespib (first compound 0.2 µM) it was 0.909; in the assay with NVP-TAE684 + Luminespib (first compound 0.6325 µM), 0.457; in the assay with NVP-TAE684 + Luminespib (first compound 2 µM), 0.152. The relative viability in assay [1] (first compound 0.005 µM) amounted to 0.929; in assay [1] (first compound 0.01581 µM), 0.94; in assay [1] (first compound 0.05 µM) it was 1.1; in assay [1] (first compound 0.1581 µM) it was 1.04; in assay [1] (first compound 0.5 µM) it was 1.15; with NVP-TAE684 + Phenformin (first compound 0.2 µM), 0.329. The relative viability with NVP-TAE684 + Phenformin (first compound 0.6325 µM) was found to be 0.406; with NVP-TAE684 + Phenformin (first compound 2 µM), 0.201.
Consider COR-L 105, for which the relative viability turned out to be 1.02 in the assay with NVP-TAE684 + Foretinib (first compound 0.2 µM); 1.4 with NVP-TAE684 + Foretinib (first compound 0.6325 µM); 0.897 with NVP-TAE684 + Foretinib (first compound 2 µM); 0.674 with NVP-TAE684 + Luminespib (first compound 0.2 µM); 0.798 with NVP-TAE684 + Luminespib (first compound 0.6325 µM); 0.317 with NVP-TAE684 + Luminespib (first compound 2 µM). In addition, the relative viability in assay [1] (first compound 0.005 µM) came to 0.819; in assay [1] (first compound 0.01581 µM), 0.753; in assay [1] (first compound 0.05 µM), 0.599; in assay [1] (first compound 0.1581 µM), 0.667; in assay [1] (first compound 0.5 µM), 0.729; with NVP-TAE684 + Phenformin (first compound 0.2 µM), 0.457. For the same cell line, the relative viability with NVP-TAE684 + Phenformin (first compound 0.6325 µM) was determined as 0.259; in the assay with NVP-TAE684 + Phenformin (first compound 2 µM) it was 0.211.
On to Calu-6, for which the relative viability in the assay with NVP-TAE684 + Foretinib (first compound 0.6325 µM) was 0.878; with NVP-TAE684 + Foretinib (first compound 2 µM), 0.671; in assay [1] (first compound 0.005 µM), 0.785; in assay [1] (first compound 0.01581 µM), 0.834; in assay [1] (first compound 0.05 µM) it was 0.819; in assay [1] (first compound 0.1581 µM), 0.961. For the same cell line, the relative viability in assay [1] (first compound 0.5 µM) stood at 0.768.
